Assay [1] concerns the target T1, RbmC2 β-prism domain (Vibrio cholerae, UniProt Q9KTH2). The assay can be described thus: biochemical. Type of assay: binding.
In assay [2] the target is T2, VCC β-prism lectin domain (Vibrio cholerae serotype O1, UniProt P09545). Nature of the assay: biochemical. Type of assay: binding.
The next assay deals with RbmC1 β-prism domain (Vibrio cholerae, UniProt Q9KTH2). Nature of the assay: biochemical. Type of assay: binding.
Assay [3] deals with T2, VCC β-prism lectin domain. Particulars: read-out: VCC β-prism affinity; cited from earlier work.
For assay [4], the target named is T2, VCC β-prism lectin domain. The assay can be described thus: biochemical. Type of assay: binding. This is another data set of the same source.
Assay [5] deals with T1, RbmC2 β-prism domain. Nature of the assay: biochemical. As to conditions: RbmC2 β-prism affinity. Type of assay: binding.
The target of assay [6] is RbmC1-GFPUV fusion (Vibrio cholerae El Tor strain N16961). The assay can be described thus: ITC. (In general: Isothermal titration calorimetry measures the heat released or taken up as one component is titrated into another.)
For assay [7], the target named is RbmC2-GFPUV fusion (Vibrio cholerae El Tor strain N16961). The assay can be described thus: ITC.

Several values for one entry are separate records, joined by “and”; a condition that tells them apart may be missing. Equal values may be shown once. Entries after “also recorded” stand apart in the source; their conditions may differ. Read-outs that look alike come from different tables or passages of the source.

In turn, `CC(=O)N[C@H]1[C@H](O[C@@H]2C(O)O[C@H](CO)[C@@H](O)[C@@H]2O)O[C@H](CO)[C@@H](O)[C@@H]1O` (stereo partly drawn) [GlcNAc-Man, N-acetylglucosaminyl-β-1,2-mannose] had a Kd on RbmC2 β-prism domain [1] (RbmC2 β-prism affinity) of 159 µM.

Consider `CC(=O)N[C@H]1C(O)O[C@H](CO)[C@@H](O[C@@H]2O[C@H](CO)[C@H](O)[C@H](O)[C@H]2O)[C@@H]1O` (stereo partly drawn) [LacNAc, N-acetyl-D-lactosamine], for which the “VCC β-prism binding” value in assay [2] is “Did not bind; also recorded: unable to detect binding”. Moreover, the “RbmC2 β-prism binding” value at RbmC2 β-prism domain [1] is on record as “Did not bind; also recorded: unable to observe binding”. In addition, the “RbmC1 β-prism binding” value at RbmC1 β-prism domain was “Did not bind; also recorded: unable to observe binding”.

As for `OC[C@H]1O[C@H](OC[C@H]2OC(O)[C@@H](O)[C@@H](O[C@H]3O[C@H](CO)[C@@H](O)[C@H](O)[C@@H]3O)[C@@H]2O)[C@@H](O)[C@@H](O)[C@@H]1O` (stereo partly drawn) [Mannotriose, 1,3-α-1,6-α-D-mannotriose], the Kd in assay [2] is 229 µM; on RbmC2 β-prism domain [1] (RbmC2 β-prism affinity), 4.1 µM; on RbmC1 β-prism domain (RbmC1 β-prism affinity), 0.6 µM.

Turning to `CO[C@H]1O[C@H](CO)[C@@H](O)[C@H](O)[C@@H]1O` [Me-α-mannose, methyl α-D-mannopyranoside], the Kd at RbmC2 β-prism domain [1] (RbmC2 β-prism affinity) was 179 µM and 503 µM; on RbmC1 β-prism domain (RbmC1 β-prism affinity) it was 503 µM and 179 µM; in assay [3], 2.7 mM.

Turning to `CC(=O)N[C@H]1[C@H](O[C@H]2[C@H](O)[C@@H](NC(C)=O)C(O)O[C@@H]2CO)O[C@H](CO)[C@@H](O[C@@H]2O[C@H](CO[C@H]3O[C@H](CO)[C@@H](O)[C@H](O)[C@@H]3O[C@@H]3O[C@H](CO)[C@@H](O)[C@H](O)[C@H]3NC(C)=O)[C@@H](O)[C@H](O[C@H]3O[C@H](CO)[C@@H](O)[C@H](O)[C@@H]3O[C@@H]3O[C@H](CO)[C@@H](O)[C@H](O)[C@H]3NC(C)=O)[C@@H]2O)[C@@H]1O` (some centres unmarked) [NGA2, GlcNAcβ1-2Manα1-6(GlcNAcβ1-2Manα1–3)Manβ1-4GlcNAcβ1-4GlcNAc], the Kd was determined as 200 nM in assay [4] and 1.5 ± 0.5 nM on RbmC2 β-prism domain [5].

With `CC(=O)N[C@H]1[C@H](O[C@@H]2[C@@H](OC[C@H]3OC(O)[C@@H](O)[C@@H](O[C@H]4O[C@H](CO)[C@@H](O)[C@H](O)[C@@H]4O[C@@H]4O[C@H](CO)[C@@H](O)[C@H](O)[C@H]4NC(C)=O)[C@@H]3O)O[C@H](CO)[C@@H](O)[C@@H]2O)O[C@H](CO)[C@@H](O)[C@@H]1O` (some centres unmarked) [Pentasaccharide, N-linked core pentasaccharide], at RbmC2 β-prism domain [5], the Kd was 1.1 nM and 1.5 nM.

As for Asialofetuin, the results for the Kd on RbmC2 β-prism domain [1] (read-out: RbmC2 β-prism affinity (apparent)) and at RbmC1 β-prism domain (read-out: RbmC1 β-prism affinity (apparent)) were 0.0184 µM and 0.0159 µM, respectively.

B1: bovine asialofetuin (natural protein)
chain: IPLDPVAGYKEPACDDPDTEQAALAAVDYINKHLPRGYKHTLNQIDSVKVWPRRPTGEVYDIEIDTLETTCHVLDPTPLANCSVRQQTQHAVEGDCDIHVLKQDGQFSVLFTKCDSSPDSAEDVRKLCPDCPLLAPLNDSRVVHAVEVALATFNAESNGSYLQLVEISRAQFVPLPVSVSVEFAVAATDCIAKEVVDPTKCNLLAEKQYGFCKGSVIQKALGGEDVRVTCTLFQTQPVIPQPQPDGAEAEAPSAVPDAAGPTPSAAGPPVASVVVGPSVVAVPLPLHRAHYDLRHTFSGVASVESSSGEAFHVGKTPIVGQPSIPGGPVRLCPGRIRYFKI
modifications: three glycosylation sites occupied by heterogeneous mixtures of bi- and tri-antennary glycans (asialo form)
In the case of B1, the values for the Kd in assay [6] and in assay [7] were 15.9 nM and 18.4 nM, respectively.

The values are drawn from article PMC5825169 (PLoS Pathogens, 2018).
